Experimental data taken from US4241083A, “Germicidal composition for agriculture and horticulture” (priority 1978, dated 1980).

Tests used:
[1] = test system: Colletotrichum lagenarium; test: Prevention effect for anthracnose on cucumber (Ex. 18); assay type: in vivo; settings: for Germicidal damage to seedlings: cucumber seedlings; for Number of disease spots per leaf / Percentage of leaves attacked with the disease / Prevention value per leaf (Perfect prevention = 100): sixth day after spraying
Source text: The prevention effect for anthracnose on cucumber was investigated in the following manner.
An aqueous solution of ethyl 2-(2-hydroxyethylamino)-3-benzoylpropionate hydrochloride (2500 ppm and 5000 ppm) was sprayed on cucumber seedlings (bifoliate age) of Tokiwa Hikari No. 3 (p type) variety which were planted in sections of two rows of three.
After air-drying the seedlings, a spore suspention of Colletotrichum lagenarium was inoculated on the test seedlings by means of a glass sprayer. The inoculated seedlings were kept at 20°-22° C. for four days in the inoculation box, and then allowed to stand in a glass chamber.
The number of disease spots of anthracnose that appeared on the cucumber leaves was measured on the sixth day after spraying the germicidal aqueous solution. The number of spots can be used to calculate a prevention value. Using the number of spots that appeared per control leaf as a reference, the relative number per hundred of spots prevented by the experimental germicide is the prevention value. Thus a perfectly preventive germicide has a prevention value of 100 and the control has a prevention value of 0.

Valsa ceratosperma = test: Growth of germs on potato dextrose-agar medium containing the compound (Ex. 1); assay type: cell-based; design: key: +++: extremely much growth; ++: much growth; +: a little growth; -: no growth; settings: two weeks, 25° C.
Experimental: (§1) Ethyl 2-(2-hydroxyethylamino)-3-benzoylpropionate hydrochloride was added to potato dextrose-agar culture medium in the concentration indicated in Table 1 and the suspensions of various kinds of germs were dropped on the culture medium. After incubation of the germs for two weeks in thermostat (25° C.), the growing conditions were observed.
(§2) In Table 1, +++, ++, + and - represent "extremely much growth", "much growth", "a little growth" and "no growth" respectively.

Cladosporium cucumerium = test: Growth of germs on potato dextrose-agar medium containing the compound (Ex. 4); assay type: cell-based; design: key: +++: extremely much growth; ++: much growth; +: a little growth; -: no growth; settings: two weeks, 25° C.
Experimental: as §1, §2

[2] = test system: Colletotrichum lagenarium; test: Growth of germs on potato dextrose-agar medium containing the compound (Ex. 9, germ of anthracnose on cucumbers); assay type: cell-based; design: key: +++: extremely much growth; ++: much growth; +: a little growth; -: no growth; settings: two weeks, 25° C.
Experimental: as §1, §2
^1 Germ of anthracnose on cucumbers

Pyrenochaeta sp. = test: Growth of germs on potato dextrose-agar medium containing the compound (Ex. 14); assay type: cell-based; design: key: +++: extremely much growth; ++: much growth; +: a little growth; -: no growth; settings: two weeks, 25° C.
Experimental: as §1, §2

Sphaerotheca fuliginea = test: Prevention effect for powdery mildew on cucumbers (Ex. 20, 21); assay type: in vivo; settings: Table 5; for Germicidal damage to seedlings: cucumber seedlings; for Percentage of leaf area with disease spots / Percentage of leaves attacked with the disease / Prevention value per leaf (Perfect prevention = 100): third and ninth days, read fifteenth day after inoculation
Experimental: The prevention effect for powdery mildew on cucumbers caused by Sphaerotheca fuliginea was examined in the following manner.
Cucumber seedlings (bifoliate age) of Tokiwa Hikari No. 3 (p type) variety planted in sections of two rows of three were inoculated with the above germ by brushing on spores from a cucumber leaf attacked with powdery mildew. […]
The leaf area on which powdery mildew spots appeared was measured on the fifteenth day after the seedlings were inoculated with the germ. The spotted area is expresses as a prevention value.
The same experiment as Example 20 was carried out except that isopropyl 2-(2-hydroxyethylamino)-3-benzoyl-propionate hydrochloride was used instead of ethyl 2-(2-hydroxyethylamino)-3-benzoylpropionate hydrochloride.

Phomopsis vexans = test: Growth of germs on potato dextrose-agar medium containing the compound (Ex. 11); assay type: cell-based; design: key: +++: extremely much growth; ++: much growth; +: a little growth; -: no growth; settings: two weeks, 25° C.
Experimental: as §1, §2

Mycosphaerella melonis = test: Growth of germs on potato dextrose-agar medium containing the compound (Ex. 13); assay type: cell-based; design: key: +++: extremely much growth; ++: much growth; +: a little growth; -: no growth; settings: two weeks, 25° C.
Experimental: as §1, §2

**Q.** What does the source list for `CCOC(=O)C(CC(=O)c1ccccc1)NCCO.Cl` (stereo not shown) [Ethyl 2-(2-hydroxyethylamino)-3-benzoylpropionate hydrochloride]?
**A.** Germicidal damage to seedlings ([1]; 2500 ppm): none; Number of disease spots per leaf ([1]; 2500 ppm): 2.83; Percentage of leaves attacked with the disease ([1]; 2500 ppm): 83.3%; Prevention value per leaf (Perfect prevention = 100) ([1]; 2500 ppm): 88.0; Germicidal damage to seedlings ([1]; 5000 ppm): none; Number of disease spots per leaf ([1]; 5000 ppm): 2.92; Percentage of leaves attacked with the disease ([1]; 5000 ppm): 91.7%; Prevention value per leaf (Perfect prevention = 100) ([1]; 5000 ppm): 87.6; growing conditions (growth of germ) (Valsa ceratosperma; 10 ppm): -; growing conditions (growth of germ) (Valsa ceratosperma; 20 ppm): -; growing conditions (growth of germ) (Valsa ceratosperma; 50 ppm): -; growing conditions (growth of germ) (Valsa ceratosperma; 100 ppm): -; growing conditions (growth of germ) (Valsa ceratosperma; 200 ppm): -; growing conditions (growth of germ) (Cladosporium cucumerium; 10 ppm): +++; growing conditions (growth of germ) (Cladosporium cucumerium; 20 ppm): +++; growing conditions (growth of germ) (Cladosporium cucumerium; 50 ppm): -; growing conditions (growth of germ) (Cladosporium cucumerium; 100 ppm): -; growing conditions (growth of germ) (Cladosporium cucumerium; 200 ppm): -; growing conditions (growth of germ) ([2]; 10 ppm): +++; growing conditions (growth of germ) ([2]; 20 ppm): -; growing conditions (growth of germ) ([2]; 50 ppm): -; growing conditions (growth of germ) ([2]; 100 ppm): -; growing conditions (growth of germ) ([2]; 200 ppm): -; growing conditions (growth of germ) (Pyrenochaeta sp.; 10 ppm): ++; growing conditions (growth of germ) (Pyrenochaeta sp.; 20 ppm): ++; growing conditions (growth of germ) (Pyrenochaeta sp.; 50 ppm): -; growing conditions (growth of germ) (Pyrenochaeta sp.; 100 ppm): -; growing conditions (growth of germ) (Pyrenochaeta sp.; 200 ppm): -; Germicidal damage to seedlings (Sphaerotheca fuliginea; 2500 ppm): none; Percentage of leaf area with disease spots (Sphaerotheca fuliginea; 2500 ppm): 0%; Percentage of leaves attacked with the disease (Sphaerotheca fuliginea; 2500 ppm): 0%; Prevention value per leaf (Perfect prevention = 100) (Sphaerotheca fuliginea; 2500 ppm): 100; Germicidal damage to seedlings (Sphaerotheca fuliginea; 5000 ppm): none; Percentage of leaf area with disease spots (Sphaerotheca fuliginea; 5000 ppm): 0%; Percentage of leaves attacked with the disease (Sphaerotheca fuliginea; 5000 ppm): 0%; Prevention value per leaf (Perfect prevention = 100) (Sphaerotheca fuliginea; 5000 ppm): 100; growing conditions (growth of germ) (Phomopsis vexans; 10 ppm): +; growing conditions (growth of germ) (Phomopsis vexans; 20 ppm): -; growing conditions (growth of germ) (Phomopsis vexans; 50 ppm): -; growing conditions (growth of germ) (Phomopsis vexans; 100 ppm): -; growing conditions (growth of germ) (Phomopsis vexans; 200 ppm): -; growing conditions (growth of germ) (Mycosphaerella melonis; 10 ppm): +++; growing conditions (growth of germ) (Mycosphaerella melonis; 20 ppm): -; growing conditions (growth of germ) (Mycosphaerella melonis; 50 ppm): -; growing conditions (growth of germ) (Mycosphaerella melonis; 100 ppm): -; growing conditions (growth of germ) (Mycosphaerella melonis; 200 ppm): -
